{
  "source": "patent US8114589B2",
  "about": "“Self-addressable self-assembling microelectronic integrated systems, component devices, mechanisms, methods, and procedures for molecular biological analysis and diagnostics” (Gamida For Life B.V., priority 1996, dated 2012)",
  "key": {"[1]": {"tested_on": "btr-RCA5 fluorescent DNA probe", "experiment": "Fluorescent DNA checkerboard addressing", "conditions": "bias reversed every 6 seconds, 80 micron microlocations"}, "[2]": {"experiment": "Conductivity measurements of transport buffers", "type": "physicochemical", "conditions": "for Average/Std. Deviation / Measurement 1 / Measurement 2 / Measurement 3: conductivity"}, "[3]": {"conditions": "not told"}, "[4]": {"experiment": "Buffer conductivity and pH measurements", "type": "physicochemical", "set-up": "conductivity: unit not given here", "conditions": "for conductivity: RT; for pH: in water at room temperature", "description": "Buffer Conductivity and pH Measurements—The conductivities of test buffer solutions utilized for transport and hybridization were measured at RT using an Accumet 1.0 cm^−1 glass conductivity cell connected to an Accumet Model 50 pH/Ion/Conductivity meter (Fisher Scientific). Buffer pH values were obtained using an Accu-pHast variable temperature combination electrode and the same model meter."}, "[5]": {"tested_on": "btrRCA5 to ATA5 capture oligonucleotide", "experiment": "Accumulation and electronic hybridization in test buffers", "conditions": "for support of sequence specific electronic hybridization: in words", "description": "Microelectronic Chips, Permeation Layer and Instrumentation—These have been described previously with the following exception. The permeation layer employed herein has an underlayer of agarose beneath the top streptavidin-containing agarose layer (approximately one micron in total thickness). To make the underlayer, […] glyoxal agarose (2%) was spun on at 2000 rpms for 20 sec prior to the application of the streptavidin-agarose layer. In brief, the 5580 series APEX chip used for these experiments consists of a 5×5 array of […] circular microelectrodes with […] microelectrodes at each corner of the array. Chips were mounted on a micromanipulator stage and the microelectrodes activated by a power supply and appropriately controlled relay switches. Fluorescently labeled oligonucleotides on the chip were visualized using oblique illumination with two 594 nm HeNe lasers and the images were quantified using either NIH Image or IPLab Spectrum software packages.\nAccumulation and Hybridization—Two biotinylated capture oligonucleotides, ATA5 and ATA4 were electronically transported and localized at adjacent microelectrodes. The solution was removed and the chip washed 3-4× in test buffer. Buffers employed in these studies are listed in Table 3 and were utilized at the listed pH values and concentrations presented.\nThe L-isomers of amino acids were used, unless otherwise noted. The chip was equilibrated in test buffer for 5-10 min. Then fresh buffer containing 10 nM BODIPY-Texas Red labeled RCA5 (btrRCA5), an oligonucleotide complementary to ATA5 but not ATA4 (RS paper) was applied.\nThe […] microelectrodes were employed as cathodes and one microelectrode within the array used as the corresponding anode. Accumulation was assessed by sourcing a 500 nA constant current to individual microelectrodes for 30 sec and monitoring the accumulation of fluorescence at the positively-biased (anode) site in the microelectrode array. Signal arising from non-fluorescent sources (ie. thermal noise, etc.) was subtracted. Experiments examining the effect of different currents upon signal accumulation were conducted in a similar fashion except that the applied current varied from 100 nA to 1 mA. […] For the comparison between conductivities of various buffers, the data is presented as fold increase over initial fluorescence to account for chip-to-chip variation as well as laser illumination variations in signal levels. For other experiments, the data is presented as attomol product versus time, after converting^2 the observed fluorescence intensity to moles of labeled oligonucleotide.\nFollowing accumulation at one microelectrode location, the buffer was removed and fresh buffer containing btrRCA5 applied. An adjacent microelectrode was then sourced in a similar fashion. Upon completion, the buffer was removed and the chip washed 5-7× with test buffer without btrRCA5. The pair of previously targeted microelectrodes were then illuminated and the fluorescence present at each site quantified. Control experiments utilized a bodipy-Texas Red labeled oligonucleotide complementary to ATA4 to verify the integrity and concentration of the ATA4 capture oligonucleotide. Percent hybridization efficiency was calculated as follows: (complementary oligonucleotide signal−noncomplementary signal)/(signal present immediately prior to the end of the applied current)×100."}, "DNA": {"tested_on": "DNA", "experiment": "DNA transport (accumulation) on the APEX chip", "conditions": "in words, same field conditions"}, "[6]": {"conditions": "cited from earlier work; for pl: Table 3"}, "[7]": {"experiment": "Buffer capacity, pH and conductivity of buffers used on the APEX chip"}, "[8]": {"tested_on": "target DNA to the specific capture DNA", "experiment": "DNA hybridization sensitivity on the APEX chip", "conditions": "normal DNA"}, "[9]": {"tested_on": "Reporter DNA to DNA1 or PNA1 capture", "experiment": "Hybridization of phosphodiester-linked oligonucleotides versus PNA analogues", "conditions": "50 mM buffer"}},
  "data": [
    {"molecule": "water [Milli-Q water]", "values": [
      {"measurement": "checkerboard addressing and concentration of fluorescent DNA probe", "setting": "[1]", "result": "Rapid (6 second) checkerboard addressing and concentration of the btr-RCA5 fluorescent DNA probe was demonstrated"}
    ]},
    {"molecule": "O=C([O-])CC(O)(CC(=O)[O-])C(=O)[O-].[Na+].[Na+].[Na+]", "note": "[3.3 mM NaCitrate, sodium citrate]", "values": [
      {"measurement": "checkerboard addressing and concentration of fluorescent DNA probe", "setting": "[1]", "result": "Rapid (6 second) checkerboard addressing and concentration of the btr-RCA5 fluorescent DNA probe was demonstrated"},
      {"measurement": "Average/Std. Deviation", "setting": "[2]", "result": "986 +/− 38.1 μS/cm"},
      {"measurement": "Measurement 1", "setting": "[2]", "result": 964, "unit": "μS/cm"},
      {"measurement": "Measurement 2", "setting": "[2]", "result": 1.03, "unit": "mS/cm"},
      {"measurement": "Measurement 3", "setting": "[2]", "result": 964, "unit": "μS/cm"}
    ]},
    {"molecule": "c1c[nH]cn1", "note": "[imidazole]", "values": [
      {"measurement": "pH above the surface of the permeation layer", "setting": "[3]", "result": "> 5"},
      {"measurement": "conductivity", "setting": "[4]; 50 mM", "result": "17.6 +/− 1.6"},
      {"measurement": "pH", "setting": "[4]; 50 mM", "result": 9.08},
      {"measurement": "hybridization efficiency", "setting": "[5]; [(specific hybridization)/(transported)] × 100", "result": 4.0},
      {"measurement": "transported", "setting": "[5]; fluorescent signal at completion of electronic targeting, value +/− SEM, 50 mM buffer", "result": "528 +/− 63"},
      {"measurement": "specific hybridization", "setting": "[5]; value +/− SEM, 50 mM buffer", "result": "21.2 +/− 6.6 attomol"}
    ]},
    {"molecule": "N[C@@H](CS)C(=O)O", "note": "[Cysteine]", "values": [
      {"measurement": "transport", "setting": "DNA", "result": "excellent transport"},
      {"measurement": "pK1", "setting": "[6]; Table 2", "result": "pK1 - 1.7"},
      {"measurement": "pK2", "setting": "[6]; Table 2", "result": "pK2 - 8.3"},
      {"measurement": "pK3", "setting": "[6]; Table 2", "result": "pK3 - 10.8"},
      {"measurement": "pl", "setting": "[6]", "result": 5.02},
      {"measurement": "pI", "setting": "[6]", "result": 5.02},
      {"measurement": "conductivity", "setting": "[4]; 50 mM", "result": "9.0 +/− 0.9"},
      {"measurement": "pH", "setting": "[4]; 50 mM", "result": 5.08},
      {"measurement": "conductivity", "setting": "[4]; 250 mM", "result": "21.8 +/− 4.4"},
      {"measurement": "conductivity", "setting": "[7]", "result": 25.0, "unit": "μS"},
      {"measurement": "PH", "setting": "[7]; NaPO4: 20 mM adjusted to pH 7.4", "result": 5.2},
      {"measurement": "support of sequence specific electronic hybridization", "setting": "[5]", "result": "difficult to evaluate because of poor signal accumulation"},
      {"measurement": "Hybridization Sensitivity of DNA", "setting": "[8]", "result": "7.5×10^10 targets"},
      {"measurement": "conductivity", "setting": "[2]", "result": "~23", "unit": "μS/cm"},
      {"measurement": "Average/Std. Deviation", "setting": "[2]", "result": "22.7 +/− 5.09 μS/cm"},
      {"measurement": "Measurement 1", "setting": "[2]", "result": 27.4, "unit": "μS/cm"},
      {"measurement": "Measurement 2", "setting": "[2]", "result": 17.3, "unit": "μS/cm"},
      {"measurement": "Measurement 3", "setting": "[2]", "result": 23.5, "unit": "μS/cm"}
    ]},
    {"molecule": "NCCCC(=O)O", "note": "[GABA, g-amino-butyric acid]", "values": [
      {"measurement": "pl", "setting": "[6]", "result": 7.30},
      {"measurement": "DNA:DNA hybridization", "setting": "[9]; 200 nA", "result": "no hybridization was observed"},
      {"measurement": "PNA:DNA hybridization", "setting": "[9]; 200 nA", "result": "Hybridization in GABA was seen"},
      {"measurement": "hybridization with either PNA:DNA or DNA:DNA duplexes", "setting": "[9]; 500 nA", "result": "lack of hybridization"},
      {"measurement": "conductivity", "setting": "[4]; 50 mM", "result": "5.6 +/− 0.6"},
      {"measurement": "pH", "setting": "[4]; 50 mM", "result": 6.76},
      {"measurement": "support of sequence specific electronic hybridization", "setting": "[5]", "result": "neither GABA, b-alanine, nor glycine was capable of supporting sequence specific hybridization"}
    ]},
    {"molecule": "O=C([O-])CCC(=O)[O-].[Na+].[Na+]", "note": "[5 mM NaSuccinate, sodium succinate]", "values": [
      {"measurement": "checkerboard addressing and concentration of fluorescent DNA probe", "setting": "[1]", "result": "Rapid (6 second) checkerboard addressing and concentration of the btr-RCA5 fluorescent DNA probe was demonstrated"}
    ]},
    {"molecule": "O=S(=O)(O)CCN1CCN(CCO)CC1", "note": "[250 mM HEPES, HEPES]", "values": [
      {"measurement": "checkerboard addressing and concentration of fluorescent DNA probe", "setting": "[1]", "result": "Rapid (6 second) checkerboard addressing and concentration of the btr-RCA5 fluorescent DNA probe was demonstrated"},
      {"measurement": "Average/Std. Deviation", "setting": "[2]", "result": "147.6 +/− 9.07 μS/cm"},
      {"measurement": "Measurement 1", "setting": "[2]", "result": 141, "unit": "μS/cm"},
      {"measurement": "Measurement 2", "setting": "[2]", "result": 144, "unit": "μS/cm"},
      {"measurement": "Measurement 3", "setting": "[2]", "result": 158, "unit": "μS/cm"},
      {"measurement": "Average/Std. Deviation", "setting": "[2]; listed as 25 mM HEPES", "result": "9.7 +/− 0.71 μS/cm"},
      {"measurement": "Measurement 1", "setting": "[2]; listed as 25 mM HEPES", "result": 9.16, "unit": "μS/cm"},
      {"measurement": "Measurement 2", "setting": "[2]; listed as 25 mM HEPES", "result": 9.44, "unit": "μS/cm"},
      {"measurement": "Measurement 3", "setting": "[2]; listed as 25 mM HEPES", "result": 10.5, "unit": "μS/cm"}
    ]}
  ]
}
